The values that follow come from paper PMC1192819, “Molecular cloning and characterization of a nuclear androgen receptor activated by 11-ketotestosterone” (Reproductive biology and endocrinology : RB&E, 2005).

The target in experiment [1] is T1, AR in stickleback kidney cytosolic extracts (Gasterosteus aculeatus, UniProt Q801Z1).
T1 sequence (Q801Z1 1-682): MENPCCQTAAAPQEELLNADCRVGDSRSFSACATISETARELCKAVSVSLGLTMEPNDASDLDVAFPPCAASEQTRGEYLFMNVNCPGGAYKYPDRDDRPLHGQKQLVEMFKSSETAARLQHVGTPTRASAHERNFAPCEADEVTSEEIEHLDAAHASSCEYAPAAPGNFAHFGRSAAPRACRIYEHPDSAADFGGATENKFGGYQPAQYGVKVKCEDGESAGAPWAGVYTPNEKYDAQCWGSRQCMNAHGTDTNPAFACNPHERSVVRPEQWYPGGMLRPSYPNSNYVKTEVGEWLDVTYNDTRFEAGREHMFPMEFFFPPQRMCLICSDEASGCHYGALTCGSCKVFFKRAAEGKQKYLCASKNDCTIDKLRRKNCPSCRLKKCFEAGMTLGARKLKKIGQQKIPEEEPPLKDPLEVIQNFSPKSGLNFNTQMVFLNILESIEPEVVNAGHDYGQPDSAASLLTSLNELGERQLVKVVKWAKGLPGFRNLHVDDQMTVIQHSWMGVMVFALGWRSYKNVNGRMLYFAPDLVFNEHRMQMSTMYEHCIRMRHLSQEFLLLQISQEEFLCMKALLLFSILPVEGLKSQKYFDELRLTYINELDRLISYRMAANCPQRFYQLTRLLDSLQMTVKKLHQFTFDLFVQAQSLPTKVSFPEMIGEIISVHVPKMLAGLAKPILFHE
Briefly: Ligand competition assay with 1 nM [3H]-DHT, kidney cytosolic extracts. The format is binding, three-spined stickleback (Gasterosteus aculeatus). As to the method:
(§1) The steroid specificity of receptor binding was examined using a competitive binding assay. […] Following incubation, the reaction was terminated by addition of DCC and centrifugation and the specific binding in each tube was determined as described above.

The test system of a further experiment is stickleback ARβ2. Briefly: ARE-luciferase trans-activation assay, stickleback ARβ2 in transfected HepG2 and ZFL cells. The format is cell-based, three-spined stickleback (Gasterosteus aculeatus). The conditions noted are these: 40 h, versus control. How it is done: Two liver epithelial cell lines were used to test receptor activity. HepG2 cells (ATCC, Manassas, VA) were maintained in DMEM supplemented with 10% FCS and non-essential amino acids. ZFL cells (ATCC) were maintained in 50% L-15 Leibovitz, 15% […] and 35% DMEM supplemented with 10% FCS (Gibco, Paisley, Scotland, UK) and 50 ng ml-1 EGF (Sigma). Cells were cultured at 37°C (HepG2) or 28°C (ZFL) in 5% CO2. The transfection experiments were initiated by replacing the tissue culture medium with fresh phenol-free medium supplemented with charcoal stripped FCS and the cells were seeded on 24-well plates. Transfections were performed at 90–95% confluence using 1,5 μl Lipofectamine 2000 (Invitrogen, Carlsbad, CA, USA) and 0,6 μg DNA per well. Transfected DNA contained 60 ng pRL (Promega), 270 ng androgen response element (ARE) luciferase reporter vector, 270 ng stickleback ARβ2 expression vector or 270 ng human AR expression vector (pCMVhAR) while 270 ng empty TNT cloning vector was used to control background luciferase levels following transfections. Two different ARE containing promoter constructs were tested, one containing 3 separate ARE (HRE; slp-ARU) and a second one construct (slp-HRE2) containing 4 copies of the ARE with high affinity for R1881, a synthetic androgen, and low affinity for dexamethasone, a synthetic glucocorticoid.
After 16 h the transfection medium was replaced with fresh phenol-free medium, supplemented with charcoal stripped FCS, containing different steroid hormones. The cells were exposed to the hormones for 40 h and luciferase levels were detected using the Dual Luciferase Assay kit (Promega) in a TD 20/20 Luminometer (Turner Designs, Sunnyvale, CA). For each cell line, transfection assay was performed for each concentration with n = 4 and the luciferase value of each assay were normalized to its corresponding Renilla luciferase activity. Each experiment was repeated a minimum of 3 times. The fold-induction is presented as luciferase values normalized against the control. The control levels were arbitrarily set to 1.0 for each cell line.

In experiment [2] the test system is AR protein and AR mRNA in stickleback kidney. Description: Hormone regulation of kidney AR protein (radioreceptor assay) and AR mRNA (slot blot). The conditions noted are these: data not shown; for regulation of AR protein (radioreceptor assay): sticklebacks exposed for 6 days. It is filed as in vivo, three-spined stickleback (Gasterosteus aculeatus). How it is done: (§2) The fish were anesthetized with 0.1% (v/v) 2-phenoxyethanol (Sigma, St. Louis, MO, USA) and implanted intraperitoneally with Silclear silicone tubing (10-mm length, 0.6-mm inner diameter, 1.2-mm outer diameter) containing steroids dissolved in cocoa butter. […] KA was used as this steroid is converted into KT by the fish. Tubes containing cocoa butter alone were used as controls. Following implantation the fish were maintained in 50-liter aquaria containing brackish water (0.5% salinity) at 20°C under LD 16:8 h. At sampling fish were decapitated and the kidneys were excised, frozen using liquid nitrogen, and stored at -70°C. A number of experiments were performed as follows. Spiggin mRNA was measured in post-breeding females that were dissected 2 days following implantation of tubes. Cytosolic androgen-receptors were measured in females and in castrated males. Males were castrated under anesthesia as above, by making a 1.5 mm long incision into the abdominal cavity on each side and removing the testes using forceps. The females and the castrated males were implanted with control and high dose tubes and dissected after 6 days. AR mRNA was studied in females implanted for 12 h, 2 and 16 days (separate experiments) with control and high dose tubes and in males castrated as above and implanted for 10 days with control tubes and high doses of KA or E2.
(§3) Total RNA was extracted using Tri Reagent™ (Sigma). Aliquots of 10 μg of total RNA were mixed with denaturing solution (6 × SSC, 7% (v/v) formaldehyde) and transferred onto a nylon membrane (Amersham Pharmacia Biotech) using a Minifold II Slot Blot Apparatus (Schleicher and Schuell, Keene, NH, USA). Membranes were probed using either a randomly primed [α-^32P]-dCTP radiolabelled AR cDNA fragment (918 base pairs) that was isolated by reverse transcriptase-polymerase chain reaction and sequenced as above, or a randomly primed [α-^32P]-dCTP radiolabelled spiggin-α cDNA. Hybridizations were performed at 65°C overnight (6 × SCC, 0.1% (w/v) SDS, 100 μg ml^-1 tRNA, and 5 × Denhardt's solution). The membranes were washed for 2 × 30 minutes at 42°C and 65°C in 0.1 × SCC, 0.1% (w/v) SDS whereafter Hyperfilm™-MP film was exposed at -70°C. The films were visualized using Curix 60 Film Developer. Following AR and spiggin mRNA determination the membranes were stripped and analyzed for 18S rRNA using a cDNA fragment as internal control. Each AR or spiggin transcript was then semi-quantified using Quantity ONE 4.2.3 (Bio-Rad, Laboratories, Inc, Hercules, CA, USA) in relation to its internal 18S transcript.
Aliquots (250 μl) of the nuclear or cytosolic preparations were added to each tube, the tubes were vortexed and incubated over night at 4°C. To stop the binding reaction, 250 μl DCC was added to each tube. The tubes were vortexed and the suspensions were incubated for 5 min at 4°C, before spinning at 3,000 × g at 4°C for 5 min. The supernatants were decanted into 7 ml scintillation vials, 5 ml of standard scintillation cocktail was added and the radioactivity in each sample was measured in a liquid scintillation counter (Beckman LS 6000SC, Beckman Instruments, Fullerton, CA). The procedure used for the expressed recombinant ARβ2 was modified as follows. […] The expressed proteins were diluted 1:100 and aliquots (100 μl) were added to each reaction tube. The tubes were vortexed and incubated over night at 4°C. To stop the binding reaction, 200 μl DCC was added to each tube. The tubes were vortexed and the suspension were incubated for 5 min at 4°C, before spinning at 3,000 × g at 4°C for 5 min. 250 μl of the supernatant was transferred into 5 ml scintillation vials and 4 ml of standard scintillation cocktail was added before the radioactivity in each sample was measured in a liquid scintillation counter (Wallac 1409, Wallac Oy, Turku, Finland).

For the next experiment, the system named is rainbow trout ARα. To be noted: COS-1 cell line; read-out: IC50 (ligand binding); cited from earlier work.
For experiment [3], the target named is T2, stickleback ARβ2 (reticulocyte lysate) (Gasterosteus aculeatus, UniProt Q801Z2).
T2 sequence (Q801Z2 1-735): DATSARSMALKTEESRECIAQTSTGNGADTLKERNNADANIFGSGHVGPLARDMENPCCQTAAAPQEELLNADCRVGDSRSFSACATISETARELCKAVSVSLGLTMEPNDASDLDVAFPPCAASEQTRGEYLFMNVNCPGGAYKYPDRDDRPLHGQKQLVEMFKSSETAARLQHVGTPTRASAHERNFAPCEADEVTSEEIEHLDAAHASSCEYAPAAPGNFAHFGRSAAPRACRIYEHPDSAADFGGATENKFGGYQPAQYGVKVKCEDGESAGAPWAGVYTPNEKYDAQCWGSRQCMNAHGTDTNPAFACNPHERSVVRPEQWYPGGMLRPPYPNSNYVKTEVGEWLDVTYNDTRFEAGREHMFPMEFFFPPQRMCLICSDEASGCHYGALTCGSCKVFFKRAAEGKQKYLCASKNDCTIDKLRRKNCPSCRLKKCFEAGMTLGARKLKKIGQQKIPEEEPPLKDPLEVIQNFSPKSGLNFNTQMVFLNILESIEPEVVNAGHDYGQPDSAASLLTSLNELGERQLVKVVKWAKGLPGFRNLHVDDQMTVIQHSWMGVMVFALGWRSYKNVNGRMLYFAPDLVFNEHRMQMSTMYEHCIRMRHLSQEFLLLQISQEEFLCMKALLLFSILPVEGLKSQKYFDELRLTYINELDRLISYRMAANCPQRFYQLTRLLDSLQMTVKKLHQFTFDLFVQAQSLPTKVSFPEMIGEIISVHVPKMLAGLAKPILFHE
Briefly: Ligand competition assay with 1 nM [3H]-DHT, ARβ2 containing reticulocyte extract. It is filed as binding, three-spined stickleback (Gasterosteus aculeatus). As to the method: The excised AR pBK CMV clones were digested with XbaI and EcoRI and the inserts were gel purified prior to ligation into the pCMV-TNT vector (Promega) between XbaI and EcoRI. […] AR was expressed by introducing the pCMV-TNT into the TNT coupled reticulocyte lysate system (Promega) according to the manufacturer's instructions. The size of the expressed products was determined by addition of S^35-methionin to the reticulocyte lysate system. The obtained protein suspension was analyzed on a denaturing 8% SDS PAGE and the sizes were determined using prestained SDS-PAGE broad range protein molecular weight standard (Bio-Rad) and a control luciferase protein of 62 kDa included in the reticulocyte lysate system (Promega). For use in binding assays AR was expressed in the absence of radioactive S^35-methionein and stored at 4°C until further used in recombinant binding assay experiments.
as §1

Experiment [4] relates to spiggin mRNA in adult female stickleback kidney. To be noted: cited from earlier work.
The test system is the same in experiment [5]. Briefly: Induction of spiggin mRNA in stickleback kidney after steroid implants (slot blot). It is filed as in vivo, three-spined stickleback (Gasterosteus aculeatus). As to the method:
as §2, §3

Structures are written as SMILES.

Turning to `C[C@@H](O)[C@@]1(O)CC[C@H]2[C@@H]3CCC4=CC(=O)CC[C@]4(C)[C@H]3CC[C@@]21C` [17,20β-P, 17,20β-dihydroxy-4-pregnen-3-one], the “binding observed (competition for [3H]-DHT)” value (shortened to “binding observed”) in experiment [1] is reported as “not”.
As to `CC12CCC(=O)C=C1CCC1C2CCC2(C)C1CCC2(O)C(O)CO` (stereo not drawn) [20β-S, 17,20β,21-trihydroxy-4-pregnen-3-one], the “binding observed” value in experiment [1] is given as “not”.
What is called IC50 is the concentration that gives 50% inhibition. With `C[C@]12CCC(=O)C[C@@H]1CC[C@@H]1[C@@H]2CC[C@]2(C)[C@@H](O)CC[C@@H]12` [DHT, 5α-dihydrotestosterone], in the experiment with stickleback ARβ2 (HepG2 cells), the “induction of luciferase activity” value is listed as 4.1 fold. The “induction of luciferase activity” value with stickleback ARβ2 (ZFL cells) was determined as 4.5 fold. Moreover, in experiment [2], the “regulation of AR mRNA (slot blot)” value is on record as “None of the three tested androgens regulated” and the “regulation of AR protein (radioreceptor assay)” value (“regulation of AR protein” below) is “None of the three tested androgens regulated”. Also, in the experiment on rainbow trout ARα, the half-inhibitory concentration (IC50) was 0.6 nM.
The term EC50 denotes the concentration that produces a half-maximal response. With `C[C@]12CC[C@@H]3c4ccc(O)cc4CC[C@H]3[C@@H]1CC[C@@H]2O` [E2, 17β-estradiol], in experiment [2], the “regulation of AR mRNA (slot blot)” value is given as “repressor” and the “regulation of AR protein” value is “repressor”. In experiment [3] (read-out: EC50 (competition for [3H]-DHT binding)), the EC50 amounted to 64.61 ± 0.28 nM.
In the case of `C[C@]12CCC(=O)C=C1CC[C@@H]1[C@@H]2[C@@H](O)C[C@@]2(C)[C@H]1CC[C@]2(O)C(=O)CO` [F, cortisol], the “binding observed” value in experiment [1] was “not”. Moreover, the “binding (competition for [3H]-DHT)” value in experiment [3] is on record as “poor binding”.
For `C[C@]12CCC(=O)C=C1CC[C@@H]1[C@@H]2C(=O)C[C@]2(C)C(=O)CC[C@@H]12` [KA, 11-ketoandrostenedione], the “spiggin mRNA induction after longer exposures” value in experiment [4] (16 days exposure) is recorded as “only observed with KA”. In experiment [2], the “regulation of AR mRNA (slot blot)” value is on record as “None of the three tested androgens regulated” and the “regulation of AR protein” value is given as “None of the three tested androgens regulated”. For the same compound, in experiment [5] (25 μg implant dose, females), the “effectiveness at increasing kidney spiggin mRNA levels relative to T” value is recorded as 50 times. Further, the “increase in spiggin mRNA levels” value in experiment [5] (females implanted with 25 μg KA, 2 days, versus control) is listed as 30 fold.
As for `C[C@]12CC[C@H]3[C@@H](CCC4=CC(=O)CC[C@@]43C)[C@@H]1CC[C@@H]2O` [T, testosterone], in experiment [2], the “regulation of AR mRNA (slot blot)” value is listed as “None of the three tested androgens regulated” and the “regulation of AR protein” value was “None of the three tested androgens regulated”. Moreover, in experiment [5] (1 μg implant dose, females), the spiggin induction entry is reported as “not inducing spiggin production”.
With `CC(C)C(=O)Nc1ccc([N+](=O)[O-])c(C(F)(F)F)c1` [flutamide], in experiment [4] (anti-androgen, ref 25 and Olsson, Berg, Lindberg, unpublished results), the “blocking of androgen induction of spiggin protein and mRNA synthesis” value is listed as “can be blocked”.
